Reference: patent US20080226571A1, “Compositions and methods to effect enhanced photoprotection against UV A and UV B induced damage of human skin” (priority 2007, published 2008)
Marks after values point to notes of the source that are not given here.

System: B16F1 mouse melanoma cells
Test: Intracellular melanin enhancement
Type: cell-based
Details: for Folds of Melanin Enhancement compared to control: Table E; for melanin enhancement activity, comparison in words: Tables C and E
Description: B16F1 mouse melanoma cells are treated with varying concentrations of actives I, II and III and other optional actives or combinations thereof at a time interval of 3 days for nine consecutive days. The intracellular melanin in both the controls and test B16F1 mouse melanoma cells is extracted by 1 N NaOH and subjected to a heat treatment at 100° C. The extracted melanin is estimated at 405 nm in a Fluostar Optima Microplate Reader.

| Structure (SMILES) | Folds of Melanin Enhancement compared to control (0.25 μg/ml) | Folds of Melanin Enhancement compared to control (0.5 μg/ml) | Folds of Melanin Enhancement compared to control (1 μg/ml) | Folds of Melanin Enhancement compared to control (2 μg/ml) | Folds of Melanin Enhancement compared to control (3 μg/ml) | Folds of Melanin Enhancement compared to control (5 μg/ml) | Folds of Melanin Enhancement compared to control (12 μg/ml) | melanin enhancement activity, comparison in words | toxicity to cells (Example 4) |
| --- | --- | --- | --- | --- | --- | --- | --- | --- | --- |
| C/C=C1\C(=O)C[C@H]2[C@@H]3CCC4=CC(=O)CC[C@]4(C)[C@H]3CC[C@]12C [Gugulsterone, Guggulsterone] | 1.15 Folds | 1.25 Folds | 1.28 Folds | 1.38 Folds | 2.38* Folds | 2.45* Folds | 2.5* Folds | comparable to active III but inferior to active I |  |
| CC(C)=CCOc1c2occc2cc2ccc(=O)oc12 [Imperatorin] | 1.08 Folds | 1.25 Folds | 1.58* Folds | 1.78* Folds | 2.58* Folds | toxic | toxic | comparable to active III but inferior to active I |  |
| C=C[C@@]1(C)CC(=O)[C@]2(O)[C@@]3(C)CCCC(C)(C)[C@@H]3[C@H](O)[C@H](OC(C)=O)[C@@]2(C)O1 [7β-Acetoxy-6β,9α-dihydroxy-8,13-epoxy-labd-14-en-11-one] | 1 Folds | 1.1 Folds | 1.5* Folds | 1.8* Folds | 2.2* Folds | 2.8* Folds | 3.2* Folds | comparable to that of active 3 |  |
| CC1(C)[C@@H](O[C@H]2O[C@H](C(=O)O)[C@@H](O)[C@H](O)[C@H]2O[C@@H]2O[C@H](C(=O)O)[C@@H](O)[C@H](O)[C@H]2O)CC[C@]2(C)[C@H]3C(=O)C=C4[C@@H]5C[C@@](C)(C(=O)O)CC[C@]5(C)CC[C@@]4(C)[C@]3(C)CC[C@@H]12 [Glycyrrhizin] | 1.82* Folds | 2.25* Folds | 2.58* Folds | 2.76* Folds | 2.88* Folds | 2.92* Folds | 2.95* Folds | comparable to active III but inferior to active I |  |
| O=C(CCCCc1ccc2c(c1)OCO2)N1CCCCC1 [tetrahydropiperine] |  |  |  |  |  |  |  | does not show significant melanin enhancement activity | toxic to cells |
| C=CC1(C)CC(=O)C2C3(C)CCCC(C)(C)C3C(O)C(OC(C)=O)C2(C)O1 (stereo not drawn) [7β-Acetoxy-6β-hydroxy-8,13-epoxy-labd-14-en-11-one] | 1.1 Folds | 1.13 Folds | 1.4* Folds | 2* Folds | 2.1* Folds | 2.2* Folds | 3* Folds | comparable to that of active 3 |  |
| COc1c2occc2cc2ccc(=O)oc12 [Active 8-MOP, 8-Methoxy psoralen] | 1.12 Folds | 1.25 Folds | 1.4* Folds | toxic | toxic | toxic | toxic | comparable to active III but inferior to active I |  |
